Legend:
Assay type in all cases: in vitro ADME
UGT1A9 = target: T1, UGT1A9 (Homo sapiens, UniProt O60656); test: Recombinant UGT reaction screening and enzyme kinetics, UGT1A9; conditions: recombinant UGT1A9 screening
T1 construct: purchased BD Biosciences (Woburn, MA, USA)
T1 sequence (O60656 26-530): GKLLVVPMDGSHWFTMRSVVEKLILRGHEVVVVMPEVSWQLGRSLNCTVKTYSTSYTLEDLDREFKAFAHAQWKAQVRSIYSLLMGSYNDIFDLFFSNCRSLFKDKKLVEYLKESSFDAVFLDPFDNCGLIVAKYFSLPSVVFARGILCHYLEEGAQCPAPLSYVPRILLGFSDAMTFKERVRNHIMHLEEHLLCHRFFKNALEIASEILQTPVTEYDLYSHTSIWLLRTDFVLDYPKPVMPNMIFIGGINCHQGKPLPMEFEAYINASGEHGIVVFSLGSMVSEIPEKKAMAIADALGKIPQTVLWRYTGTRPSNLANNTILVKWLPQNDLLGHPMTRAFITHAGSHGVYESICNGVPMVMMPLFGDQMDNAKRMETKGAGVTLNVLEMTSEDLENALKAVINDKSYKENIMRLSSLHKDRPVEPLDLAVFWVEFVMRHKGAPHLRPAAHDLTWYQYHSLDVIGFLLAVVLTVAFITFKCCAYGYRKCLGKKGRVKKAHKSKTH
Procedure: (§1) UGT reaction screening of tectorigenin and irigenin was conducted using nine commercially available human UGTs (UGT1A1/1A3/1A4/1A6/1A9/2B4/2B7/2B15/2B17). Furthermore, we studied the enzymatic kinetic characteristics of tectorigenin and irigenin using UGT1A1 and UGT1A9. Six concentrations of tectorigenin and irigenin (1, 3, 10, 30, 100, and 300 μM) were incubated in triplicate in order to obtain the enzyme kinetic characteristics of tectorigenin and irigenin glucuronide.
For both HLMs and UGTs, metabolic kinetic analysis was performed by fitting the data to the Michaelis-Menten model. The Km and Vmax of enzymes were calculated as follows:(3) V=Vmax×[S]/Km+[S], where [S] is the substrate concentration. All results were shown as the mean ± standard error (SE). Differences among different groups were compared using one-way analysis of variance. A p-value < 0.05 was considered statistically significant.

UGT1A4 = target: T2, UGT1A4 (Homo sapiens, UniProt P22310); test: Recombinant UGT reaction screening, UGT1A4
T2 construct: purchased BD Biosciences (Woburn, MA, USA)
T2 sequence (P22310 29-534): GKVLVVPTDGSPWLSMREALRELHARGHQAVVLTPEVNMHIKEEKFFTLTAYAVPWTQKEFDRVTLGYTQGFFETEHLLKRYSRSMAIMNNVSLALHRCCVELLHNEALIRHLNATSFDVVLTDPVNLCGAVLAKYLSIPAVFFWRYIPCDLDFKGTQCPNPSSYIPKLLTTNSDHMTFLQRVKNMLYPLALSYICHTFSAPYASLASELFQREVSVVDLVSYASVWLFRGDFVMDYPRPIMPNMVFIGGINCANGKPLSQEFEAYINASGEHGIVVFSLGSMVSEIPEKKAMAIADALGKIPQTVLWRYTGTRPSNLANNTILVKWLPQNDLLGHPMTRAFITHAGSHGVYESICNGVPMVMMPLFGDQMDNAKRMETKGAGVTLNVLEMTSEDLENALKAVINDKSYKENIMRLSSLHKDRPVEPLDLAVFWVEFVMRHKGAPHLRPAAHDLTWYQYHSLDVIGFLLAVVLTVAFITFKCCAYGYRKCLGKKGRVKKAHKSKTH
Procedure: as §1

UGT2B7 = target: T3, UGT2B7 (Homo sapiens, UniProt P16662); test: Recombinant UGT reaction screening, UGT2B7
T3 construct: purchased BD Biosciences (Woburn, MA, USA)
T3 sequence (P16662 24-529): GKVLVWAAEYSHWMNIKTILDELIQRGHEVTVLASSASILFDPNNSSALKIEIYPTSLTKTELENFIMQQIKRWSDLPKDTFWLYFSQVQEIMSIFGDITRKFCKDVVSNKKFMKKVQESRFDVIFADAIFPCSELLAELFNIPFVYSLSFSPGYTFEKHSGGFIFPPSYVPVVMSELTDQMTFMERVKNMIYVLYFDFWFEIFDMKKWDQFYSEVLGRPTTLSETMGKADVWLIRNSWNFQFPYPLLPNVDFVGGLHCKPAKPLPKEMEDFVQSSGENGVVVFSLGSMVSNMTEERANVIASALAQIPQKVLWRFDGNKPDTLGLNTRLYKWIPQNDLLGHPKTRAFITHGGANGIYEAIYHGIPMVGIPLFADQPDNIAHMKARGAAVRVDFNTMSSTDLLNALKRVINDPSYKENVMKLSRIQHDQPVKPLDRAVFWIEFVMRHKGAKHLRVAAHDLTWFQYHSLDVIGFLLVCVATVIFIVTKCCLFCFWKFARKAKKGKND
Procedure: as §1

UGT2B4 = target: T4, UGT2B4 (Homo sapiens, UniProt P06133); test: Recombinant UGT reaction screening, UGT2B4
T4 construct: purchased BD Biosciences (Woburn, MA, USA)
T4 sequence (P06133 24-528): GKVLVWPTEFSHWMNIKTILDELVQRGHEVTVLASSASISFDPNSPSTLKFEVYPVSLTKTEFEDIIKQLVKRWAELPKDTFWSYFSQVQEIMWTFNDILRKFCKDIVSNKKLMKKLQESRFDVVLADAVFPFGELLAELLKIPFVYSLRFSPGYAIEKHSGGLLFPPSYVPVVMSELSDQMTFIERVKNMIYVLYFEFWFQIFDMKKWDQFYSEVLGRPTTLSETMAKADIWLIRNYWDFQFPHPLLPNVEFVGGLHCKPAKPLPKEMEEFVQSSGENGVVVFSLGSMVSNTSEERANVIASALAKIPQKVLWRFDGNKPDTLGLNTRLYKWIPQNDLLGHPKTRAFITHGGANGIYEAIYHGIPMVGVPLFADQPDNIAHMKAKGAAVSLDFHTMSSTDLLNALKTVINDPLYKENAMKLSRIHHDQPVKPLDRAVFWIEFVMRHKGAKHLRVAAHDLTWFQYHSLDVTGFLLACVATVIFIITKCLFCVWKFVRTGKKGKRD
Procedure: as §1

UGT2B15 = target: T5, UGT2B15 (Homo sapiens, UniProt P54855); test: Recombinant UGT reaction screening, UGT2B15
T5 construct: purchased BD Biosciences (Woburn, MA, USA)
T5 sequence (P54855 24-530): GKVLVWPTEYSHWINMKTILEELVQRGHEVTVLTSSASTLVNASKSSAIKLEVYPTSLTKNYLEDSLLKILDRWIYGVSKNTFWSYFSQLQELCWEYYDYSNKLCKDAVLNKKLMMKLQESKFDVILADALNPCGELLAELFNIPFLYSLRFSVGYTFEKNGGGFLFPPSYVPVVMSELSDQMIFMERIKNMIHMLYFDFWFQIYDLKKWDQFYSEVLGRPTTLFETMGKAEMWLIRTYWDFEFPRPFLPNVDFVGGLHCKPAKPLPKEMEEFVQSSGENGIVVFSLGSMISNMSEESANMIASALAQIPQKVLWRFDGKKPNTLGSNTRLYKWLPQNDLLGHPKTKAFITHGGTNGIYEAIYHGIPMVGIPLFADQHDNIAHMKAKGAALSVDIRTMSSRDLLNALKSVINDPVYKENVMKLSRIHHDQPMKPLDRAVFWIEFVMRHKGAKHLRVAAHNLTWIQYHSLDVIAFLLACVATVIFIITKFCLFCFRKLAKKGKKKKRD
Procedure: as §1

Compound: COc1c(O)cc2occ(-c3ccc(O)cc3)c(=O)c2c1O [Tectorigenin, 5,7,4′-trihydroxyl-6-methoxyl isoflavone]
- Activity in glucuronidation of tectorigenin (UGT1A9): highest activity
- Activity in glucuronidation of tectorigenin (UGT1A4): some activity
- Activity in glucuronidation of tectorigenin (UGT2B7): some activity
- Activity in glucuronidation of tectorigenin (UGT2B4): none
- Activity in glucuronidation of tectorigenin (UGT2B15): none

Source: paper PMC9268515, “UGT1A1 and UGT1A9 Are Responsible for Phase II Metabolism of Tectorigenin and Irigenin In Vitro” (Molecules, 2022)
